pEC50, pIC50: −log10 of the molar value. Where two headings read alike, the source gives them in different places.

Data on 15 molecules can be found in patent publication EP4755888A1 (ILAb Co., Ltd., priority 2023, dated 2025).

For test [1], the target named is T1, PD-L1 expressed on the cell surface (MC38 hPD-L1) (Homo sapiens, UniProt Q9NZQ7).
T1 construct: expressed in transfected cells; host or cells: MC38 mouse colon cancer cell line expressing human PD-L1
As to the kind of experiment: Internalization of cell surface PD-L1, flow cytometry with fluorescent staining. The note with it: MC38 hPD-L1 cells, 1 µM, 4 hours; untreated 90% to 99%. Format: cell-based. Here is the method:
In order to evaluate the internalization of cell surface PD-L1 induced by the compounds of the present invention synthesized according to the above Preparation Examples, a flow cytometry experiment using fluorescent staining was conducted as described below.
Specifically, a mouse colon cancer cell line expressing human PD-L1 (MC38 hPD-L1) was seeded into a 24-well plate at a density of 5 x 10^5 cells per well, followed by treatment with Compounds 206 to 227 at a concentration of 1 µM and incubation for 4 hours. After 4 hours, the compound-treated MC38 hPD-L1 cells were collected and stained with PE anti-hPD-L1 fluorecence at room temperature for 30 minutes. The rate of PD-L1 expression on the cell surface was then quantified using flow cytometry.
In general terms: A flow cytometer gives signals particle by particle.

Test [2] has as its target PD-1/PD-L1 (Homo sapiens, UniProt Q9NZQ7). As to the kind of experiment: TR-FRET PD-1/PD-L1 binding inhibition at the molecular level (free proteins). In short, it runs like this: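 HTRF read-out at 665/620 nm after 2 h at room temperature. Detection used anti-Tag1 Eu cryptate plus anti-Tag2 XL665 antibodies. Tagged PD-L1 and PD-1 proteins were pre-mixed with compound across twelve […] 1:2 dilutions starting at 200 nM.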
(In general: Time-resolved FRET reads energy transfer from a long-lived donor to a nearby acceptor.)

In test [3] the test system is PD-1/PD-L1. As to the kind of experiment: PD-1/PD-L1 blockade bioassay at the cellular level (PD-L1 aAPC/CHO-K1 cells + PD-1 Effector T cells, luciferase). Format: cell-based. The settings on record: Homo sapiens, T-cell; PD-L1 aAPC/CHO-K1 cells with PD-1 Effector T cells, 6 hours, luminescence; read-out: PD-1/PD-L1 Inhibitory Activity EC50. Here is the method: In order to evaluate the effect of the compounds of the present invention, synthesized according to the above Preparation Examples, on blocking signal transduction between PD-1/PD-L1-expressing cells, a PD-1/PD-L1 blockade bioassay was conducted as described below.
Specifically, PD-L1 aAPC/CHO-K1 cells engineered to express human PD-L1 were seeded into a 96-well white plate and cultured for one day. On the following day, the compounds were prepared in a 96-well plate by serial dilution at concentrations starting from 10 µM and 5 µM, followed by 1/4 dilutions to obtain a total of ten concentrations. The culture medium in the plate seeded with the PD-L1 aAPC/CHO-K1 cell line was removed, and 40 µL of each prepared compound solution was added to a 96-well plate. Thereafter, 40 µL of PD-1 Effector T cell line engineered to express human PD-1 was additionally added, and then cultured for 6 hours. After 6 hours, 80 µL of Bio-Glo luciferase buffer was added to each well, followed by incubation at room temperature for 10 minutes, and luminescence was measured using a microplate reader.

Setting [4] is: Tag1-PD-L1 and Tag2-PD-1 proteins, twelve concentrations from 200 nM, 2 hours at room temperature, read-out: FRET assay (IC50).

T1 sequence (Q9NZQ7 19-290): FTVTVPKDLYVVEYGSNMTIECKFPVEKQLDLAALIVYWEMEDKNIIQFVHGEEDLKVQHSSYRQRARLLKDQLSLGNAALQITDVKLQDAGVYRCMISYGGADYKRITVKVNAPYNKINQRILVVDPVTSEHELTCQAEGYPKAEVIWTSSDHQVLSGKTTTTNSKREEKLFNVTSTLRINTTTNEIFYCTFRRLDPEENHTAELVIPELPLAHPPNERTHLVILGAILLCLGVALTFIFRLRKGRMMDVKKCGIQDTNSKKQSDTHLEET
Sequence of PD-1/PD-L1 (Homo sapiens, UniProt Q9NZQ7) (Q9NZQ7 19-238 limits assumed): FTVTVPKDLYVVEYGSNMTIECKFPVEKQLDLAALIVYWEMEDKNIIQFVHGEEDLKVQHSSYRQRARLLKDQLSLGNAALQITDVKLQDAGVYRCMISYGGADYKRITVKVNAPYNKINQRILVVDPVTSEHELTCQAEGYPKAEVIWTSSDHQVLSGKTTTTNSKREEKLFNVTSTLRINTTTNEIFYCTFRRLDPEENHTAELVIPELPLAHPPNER

Regarding `Cc1c(NC(=O)c2cc3n(n2)CCC[C@H]3NCC(=O)O)cccc1-c1cccc(Nc2nc(C(F)F)nc3cc(CN4CC[C@@H](O)C4)cnc23)c1C` [Compound 213, 2-(((R)-2-((3'-((2-(difluoromethyl)-7-(((R)-3-hydroxypyrrolidin-1-yl)methyl)pyrido[3,2-d]pyrimidin-4-yl)amino)-2,2'-dimethyl-[1,1'-biphenyl]-3-yl)carbamoyl)-4,5,6,7-tetrahydropyrazolo[1,5-a]pyridin-4-yl)amino)acetic acid], the “Cell surface PD-L1 expression level (%)” value in test [1] is given as 73.9%. The pIC50 in test [2] (setting [4]) is greater than 8.00.

As to `Cc1c(NC(=O)c2cc3n(n2)CCC[C@@H]3NCC(=O)O)cccc1-c1cccc(Nc2nc(C(F)F)nc3cc(CN4CC[C@@H](O)C4)cnc23)c1C` [Compound 212, 2-(((S)-2-((3'-((2-(difluoromethyl)-7-(((R)-3-hydroxypyrrolidin-1-yl)methyl)pyrido[3,2-d]pyrimidin-4-yl)amino)-2,2'-dimethyl-[1,1'-biphenyl]-3-yl)carbamoyl)-4,5,6,7-tetrahydropyrazolo[1,5-a]pyridin-4-yl)amino)acetic acid], the “Cell surface PD-L1 expression level (%)” value in test [1] was determined as 22.1%. Moreover, the pEC50 in test [3] was 7.49. Besides, the pIC50 in test [2] (setting [4]) is greater than 8.00.

`O=C(Nc1cccc(-c2cccc(NC(=O)c3cc4n(n3)CCC[C@H]4NCCO)c2Cl)c1Cl)c1ccc(CNCCO)cn1` [Compound 207, (R)-N-(2,2'-dichloro-3'-(5-(((2-hydroxyethyl)amino)methyl)picolinamido)-[1,1'-biphenyl]-3-yl)-4-((2-hydroxyethyl)amino)-4,5,6,7-tetrahydropyrazolo[1,5-a]pyridine-2-carboxamide]: the “Cell surface PD-L1 expression level (%)” value in test [1] came to 77.5%. In test [3], the pEC50 was 7.07. Also, the pIC50 in test [2] (setting [4]) was greater than 8.00.

Regarding `Cc1c(NC(=O)c2ccc(CN3CC[C@@H](O)C3)cn2)cccc1-c1cccc(NC(=O)c2cc3n(n2)CCC[C@H]3NCCO)c1C` [Compound 215, (R)-4-((2-hydroxyethyl)amino)-N-(3'-(5-(((R)-3-hydroxypyrrolidin-1-yl)methyl)picolinamido)-2,2'-dimethyl-[1,1'-biphenyl]-3-yl)-4,5,6,7-tetrahydropyrazolo[1,5-a]pyridine-2-carboxamide], the “Cell surface PD-L1 expression level (%)” value in test [1] was found to be 88.7%. Moreover, in test [2] (setting [4]), the pIC50 was greater than 8.00.

On to `Cc1c(NC(=O)c2cc3n(n2)CCC[C@H]3N2CC[C@@H](C(=O)O)C2)cccc1-c1cccc(Nc2nc(C(F)F)nc3cc(CN4CC[C@@H](O)C4)cnc23)c1C` [Compound 211, (R)-1-((R)-2-((3'-((2-(difluoromethyl)-7-(((R)-3-hydroxypyrrolidin-1-yl)methyl)pyrido[3,2-d]pyrimidin-4-yl)amino)-2,2'-dimethyl-[1,1'-biphenyl]-3-yl)carbamoyl)-4,5,6,7-tetrahydropyrazolo[1,5-a]pyridin-4-yl)pyrrolidine-3-carboxylic acid], for which the “Cell surface PD-L1 expression level (%)” value in test [1] amounted to 75.3%. Moreover, the pIC50 in test [2] (setting [4]) is greater than 8.00.

For the molecule `O=C(O)CN[C@@H]1CCCn2nc(C(=O)Nc3cccc(-c4cccc(NC(=O)c5ccc(CN6CC[C@@H](O)C6)cn5)c4Cl)c3Cl)cc21` [Compound 223, 2-(((R)-2-((2,2'-dichloro-3'-(5-(((R)-3-hydroxypyrrolidin-1-yl)methyl)picolinamido)-[1,1'-biphenyl]-3-yl)carbamoyl)-4,5,6,7-tetrahydropyrazolo[1,5-a]pyridin-4-yl)amino)acetic acid], the “Cell surface PD-L1 expression level (%)” value in test [1] is recorded as 66.4%. For the same molecule, in test [2] (setting [4]), the pIC50 is 7.00 to 8.00.

For the molecule `Cc1c(NC(=O)c2ccc(CN3CC[C@@H](O)C3)cn2)cccc1-c1cccc(NC(=O)c2cc3n(n2)CCC[C@H]3N2CC[C@@H](O)C2)c1C` [Compound 217], the “Cell surface PD-L1 expression level (%)” value in test [1] was found to be 82.8%. Also, the pEC50 in test [3] was 6.60. For the same molecule, in test [2] (read-out: FRET assay (IC50), Tag1-PD-L1 and Tag2-PD-1 proteins, twelve concentrations from 200 nM, 2 hours at room temperature), the pIC50 is greater than 8.00.

In the case of `O=C(Nc1cccc(-c2cccc(NC(=O)c3cc4n(n3)CCC[C@@H]4NCCO)c2Cl)c1Cl)c1ccc(CNCCO)cn1` [Compound 206, (S)-N-(2,2'-dichloro-3'-(5-(((2-hydroxyethyl)amino)methyl)picolinamido)-[1,1'-biphenyl]-3-yl)-4-((2-hydroxyethyl)amino)-4,5,6,7-tetrahydropyrazolo[1,5-a]pyridine-2-carboxamide], in test [1], the “Cell surface PD-L1 expression level (%)” value is given as 0.9%. Further, the pEC50 in test [3] was 7.80. Further, the pIC50 in test [2] (setting [4]) is greater than 8.00.

For `O=C1CC[C@@H](CN[C@H]2CCCn3nc(C(=O)Nc4cccc(-c5cccc(NC(=O)c6ccc(CNCCO)cn6)c5Cl)c4Cl)cc32)N1` [Compound 224, (S)-N-(2,2'-dichloro-3'-(5-(((2-hydroxyethyl)amino)methyl)picolinamido)-[1,1'-biphenyl]-3-yl)-4-((((S)-5-oxopyrrolidin-2-yl)methyl)amino)-4,5,6,7-tetrahydropyrazolo[1,5-a]pyridine-2-carboxamide], the “Cell surface PD-L1 expression level (%)” value in test [1] is 70.8%. The pIC50 in test [2] (setting [4]) is greater than 8.00.

As to `O=C(Nc1cccc(-c2cccc(NC(=O)c3cc4n(n3)CCC[C@H]4N3CC[C@@H](C(=O)O)C3)c2Cl)c1Cl)c1ccc(CNCCO)cn1` [Compound 209, (R)-1-((R)-2-((2,2'-dichloro-3'-(5-(((2-hydroxyethyl)amino)methyl)picolinamido)-[1,1'-biphenyl]-3-yl)carbamoyl)-4,5,6,7-tetrahydropyrazolo[1,5-a]pyridin-4-yl)pyrrolidine-3-carboxylic acid], the “Cell surface PD-L1 expression level (%)” value in test [1] was found to be 71.0%. In addition, in test [2] (setting [4]), the pIC50 is greater than 8.00.

As to `O=C1CC[C@@H](CN[C@@H]2CCCn3nc(C(=O)Nc4cccc(-c5cccc(NC(=O)c6ccc(CNCCO)cn6)c5Cl)c4Cl)cc32)N1` [Compound 225, (R)-N-(2,2'-dichloro-3'-(5-(((2-hydroxyethyl)amino)methyl)picolinamido)-[1,1'-biphenyl]-3-yl)-4-((((S)-5-oxopyrrolidin-2-yl)methyl)amino)-4,5,6,7-tetrahydropyrazolo[1,5-a]pyridine-2-carboxamide], the “Cell surface PD-L1 expression level (%)” value in test [1] is 1.6%. In test [2] (setting [4]), the pIC50 was 7.00 to 8.00.

Consider `O=C(O)CN[C@@H]1CCCn2nc(C(=O)Nc3cccc(-c4cccc(Nc5nccc6cc(CN7CC[C@@H](O)C7)cnc56)c4Cl)c3Cl)cc21` [Compound 219, 2-(((R)-2-((2,2'-dichloro-3'-((3-(((R)-3-hydroxypyrrolidin-1-yl)methyl)-1,7-naphthyridin-8-yl)amino)-[1,1'-biphenyl]-3-yl)carbamoyl)-4,5,6,7-tetrahydropyrazolo[1,5-a]pyridin-4-yl)amino)acetic acid], for which, in test [1], the “Cell surface PD-L1 expression level (%)” value was determined as 36.5%. Besides, the pIC50 in test [2] (setting [4]) was greater than 8.00.

As for `O=C(Nc1cccc(-c2cccc(Nc3nccc4cc(CN5CC[C@H](O)C5)cnc34)c2Cl)c1Cl)c1cc2n(n1)CCC[C@@H]2N1CCC(C(=O)O)CC1` [Compound 226, 1-((S)-2-((2,2'-dichloro-3'-((3-(((S)-3-hydroxypyrrolidin-1-yl)methyl)-1,7-naphthyridin-8-yl)amino)-[1,1'-biphenyl]-3-yl)carbamoyl)-4,5,6,7-tetrahydropyrazolo[1,5-a]pyridin-4-yl)piperidine-4-carboxylic acid], the “Cell surface PD-L1 expression level (%)” value in test [1] came out at 80.8%. For the same molecule, the pIC50 in test [2] (setting [4]) was 7.00 to 8.00.

Turning to `O=C(O)CN[C@@H]1CCCn2nc(C(=O)Nc3cccc(-c4cccc(NC(=O)c5ccc(CNCCO)cn5)c4Cl)c3Cl)cc21` [Compound 221, (R)-2-((2-((2,2'-dichloro-3'-(5-(((2-hydroxyethyl)amino)methyl)picolinamido)-[1,1'-biphenyl]-3-yl)carbamoyl)-4,5,6,7-tetrahydropyrazolo[1,5-a]pyridin-4-yl)amino)acetic acid], in test [1], the “Cell surface PD-L1 expression level (%)” value was 41.3%. Besides, the pIC50 in test [2] (setting [4]) was greater than 8.00.

Regarding `O=C(Nc1cccc(-c2cccc(Nc3nccc4cc(CN5CC[C@@H](O)C5)cnc34)c2Cl)c1Cl)c1cc2n(n1)CCCC2N1CCC(O)CC1` (stereo partly drawn) [Compound 23, N-(2,2'-dichloro-3'-((3-(((R)-3-hydroxypyrrolidin-1-yl)methyl)-1,7-naphthyridin-8-yl)amino)-[1,1'-biphenyl]-3-yl)-4-(4-hydroxypiperidin-1-yl)-4,5,6,7-tetrahydropyrazolo[1,5-a]pyridine-2-carboxamide], the pIC50 in test [2] (setting [4]) was 7.00 to 8.00.
